Source: patent publication US8791132B2, “Compounds and methods for treatment of hypertension” (Medivation Technologies, Inc., priority 2011, dated 2014)
Where “and” joins values, the source holds several entries; their conditions need not be identical. Equal values may be shown once. Read-outs that look alike come from different tables or passages of the source. Each block holds one compound with its values, some of them ahead of it.

How the values were obtained:
[1] = biological target: T1, rat adrenergic α1B receptor (Rattus norvegicus, UniProt P15823); experiment: Radioligand binding, adrenergic α1B ([3H]Prazosin)
T1 construct: rat adrenergic α1B receptor obtained from Wistar Rat liver; from tissue; host or cells: Wistar rat liver
T1 sequence (P15823 1-515): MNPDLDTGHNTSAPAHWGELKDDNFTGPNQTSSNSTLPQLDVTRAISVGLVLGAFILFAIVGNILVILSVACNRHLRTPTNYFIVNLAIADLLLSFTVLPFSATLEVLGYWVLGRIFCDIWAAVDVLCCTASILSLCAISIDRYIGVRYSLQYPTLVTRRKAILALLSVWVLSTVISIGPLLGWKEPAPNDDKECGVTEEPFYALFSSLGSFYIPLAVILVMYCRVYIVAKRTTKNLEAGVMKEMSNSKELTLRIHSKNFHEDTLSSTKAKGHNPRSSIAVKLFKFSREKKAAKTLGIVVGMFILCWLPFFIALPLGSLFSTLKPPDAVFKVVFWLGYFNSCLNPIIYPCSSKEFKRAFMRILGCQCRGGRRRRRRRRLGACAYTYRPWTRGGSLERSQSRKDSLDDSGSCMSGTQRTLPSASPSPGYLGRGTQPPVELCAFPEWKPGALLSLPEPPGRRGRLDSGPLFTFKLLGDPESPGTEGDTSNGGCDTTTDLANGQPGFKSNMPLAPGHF
Summary of the method: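 Rat α1B receptor from Wistar rat liver was incubated with 0.25 nM [3H]prazosin for 60 min at 25 °C in 50 mM Tris-HCl, pH 7.4, 0.5 mM EDTA. Non-specific binding was defined with 10 μM phentolamine. Bound radioligand was measured by filtration and counting, reported as percent inhibition of specific binding.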

[2] = biological target: T2, human recombinant adrenergic α2B receptor (Homo sapiens, UniProt P18089); experiment: Radioligand binding, adrenergic α2B ([3H]Rauwolscine); conditions: for Percentage inhibition of ligand binding, Adrenergic α2B / Percentage inhibition of ligand binding, Adrenergic α2B (0.03 μM): 0.03 µM; for Ki: read-out: Ki α2B
T2 construct: expressed in transfected cells; host or cells: CHO-K1
T2 sequence (P18089 1-450): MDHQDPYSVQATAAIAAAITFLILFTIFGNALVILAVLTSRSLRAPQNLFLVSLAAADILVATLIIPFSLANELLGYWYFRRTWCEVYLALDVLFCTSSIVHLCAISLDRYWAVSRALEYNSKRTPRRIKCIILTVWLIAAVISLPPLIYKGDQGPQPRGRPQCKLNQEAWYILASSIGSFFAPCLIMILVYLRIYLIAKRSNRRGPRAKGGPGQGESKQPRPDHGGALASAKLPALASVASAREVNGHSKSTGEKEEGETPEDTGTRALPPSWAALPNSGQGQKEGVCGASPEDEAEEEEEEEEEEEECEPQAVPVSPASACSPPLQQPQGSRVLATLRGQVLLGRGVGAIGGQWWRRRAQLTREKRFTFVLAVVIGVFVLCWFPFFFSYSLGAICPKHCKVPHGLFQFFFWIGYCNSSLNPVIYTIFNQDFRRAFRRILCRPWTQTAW
Summary of the method: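 Values are percent inhibition of specific radioligand binding. The receptor, expressed in CHO-K1 cells, was exposed to 2.5 nM [3H]Rauwolscine at 25° C for 60 min, with 10 μM Prazosin marking non-specific binding.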

[3] = biological target: T3, human recombinant adrenergic α2A receptor (Homo sapiens, UniProt P08913); experiment: Radioligand binding, adrenergic α2A ([3H]MK-912); conditions: for Percentage inhibition of ligand binding, Adrenergic α2A / Percentage inhibition of ligand binding, Adrenergic α2A (0.1 μM): 0.1 µM
T3 construct: expressed in transfected cells; host or cells: insect Sf9 cells
T3 sequence (P08913 1-465): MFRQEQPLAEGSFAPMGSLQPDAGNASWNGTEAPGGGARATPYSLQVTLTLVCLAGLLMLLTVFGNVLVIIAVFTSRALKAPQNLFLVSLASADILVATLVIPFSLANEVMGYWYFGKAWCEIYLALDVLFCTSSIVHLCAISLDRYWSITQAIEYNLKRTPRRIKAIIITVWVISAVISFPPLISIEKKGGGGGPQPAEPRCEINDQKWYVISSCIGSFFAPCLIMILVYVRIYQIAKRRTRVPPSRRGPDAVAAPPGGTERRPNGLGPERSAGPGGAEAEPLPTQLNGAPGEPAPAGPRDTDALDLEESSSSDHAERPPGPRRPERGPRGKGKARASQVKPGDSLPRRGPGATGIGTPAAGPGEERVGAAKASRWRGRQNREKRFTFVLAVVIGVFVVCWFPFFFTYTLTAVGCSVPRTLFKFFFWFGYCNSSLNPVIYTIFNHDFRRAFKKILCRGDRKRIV
Summary of the method: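 Sf9 membranes, 1 nM [3H]MK-912, 60 min, 25 °C, Tris-HCl pH 7.4/MgCl2/EDTA buffer. NSB: 10 μM WB-4101. Filtration, counting; % inhibition of specific binding.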

[4] = compound at 0.1 μM, [3H]Prazosin, repeat assays, each datapoint shown, 0.1 µM
[5] = compound at 0.03 μM, [3H]Rauwolscine, repeat assays, each datapoint shown
[6] = compound at 0.1 μM, [3H]MK-912, repeat assays, each datapoint shown
[7] = compound at 0.1 μM, [3H]Prazosin, repeat assays, each datapoint shown, read-out: Percentage inhibition of ligand binding, Adrenergic α1B
[8] = compound at 0.1 μM, [3H]MK-912, repeat assays, each datapoint shown, read-out: Percentage inhibition of ligand binding, Adrenergic α2A
[9] = read-out: Percentage inhibition of ligand binding, Adrenergic α1B (0.1 μM), compound at 0.1 μM, [3H]Prazosin, repeat datapoints each shown
[10] = read-out: Percentage inhibition of ligand binding, Adrenergic α2B (0.03 μM), compound at 0.03 μM, [3H]Rauwolscine, repeat datapoints each shown
[11] = read-out: Percentage inhibition of ligand binding, Adrenergic α2A (0.1 μM), compound at 0.1 μM, [3H]MK-912, repeat datapoints each shown
[12] = compound at 0.1 μM, [3H]Prazosin, repeat datapoints each shown, 0.1 µM
[13] = compound at 0.03 μM, [3H]Rauwolscine, repeat datapoints each shown
[14] = compound at 0.1 μM, [3H]MK-912, repeat datapoints each shown
[15] = read-out: Percentage inhibition of ligand binding, Adrenergic α2A (0.03 μM), compound at 0.03 μM, [3H]MK-912, repeat datapoints each shown

Percentage inhibition of ligand binding, Adrenergic α1B [1, 4]: 28% | Percentage inhibition of ligand binding, Adrenergic α2B [2, 5]: 14% | Percentage inhibition of ligand binding, Adrenergic α2A [3, 6]: 11%
SMILES: Cc1cnc2c(c1)c1c(n2CC(O)c2ccncc2)CCN(C)C1 (single isomer, unassigned) [55a, 2-(3,6-dimethyl-5,6,7,8-tetrahydro-1,6,9-triaza-fluoren-9-yl)-1-pyridin-4-yl-ethanol]

inhibition at 0.1 µM [1, 7]: 11% | Percentage inhibition of ligand binding, Adrenergic α2B [2, 5]: 15% | inhibition at 0.1 µM [3, 8]: 18%
SMILES: CN1CCc2c(c3cc(C(F)(F)F)ccc3n2CC(O)c2cccnc2)C1 (single isomer, unassigned) [59a]

inhibition at 0.03 µM ([1]; compound at 0.03 μM, [3H]Prazosin, repeat assays, each datapoint shown, read-out: Percentage inhibition of ligand binding, Adrenergic α1B): 68% | Percentage inhibition of ligand binding, Adrenergic α1B [1, 4]: 91% | inhibition at 0.1 µM [1, 7]: 89% | Percentage inhibition of ligand binding, Adrenergic α2B [2, 5]: 102% | inhibition at 0.03 µM ([2]; compound at 0.03 μM, [3H]Rauwolscine, repeat assays, each datapoint shown, read-out: Percentage inhibition of ligand binding, Adrenergic α2B): 100% | Ki [2]: 1.13 nM | Ki [3]: 14.2 nM | inhibition at 0.03 µM ([3]; compound at 0.03 μM, [3H]MK-912, repeat assays, each datapoint shown, read-out: Percentage inhibition of ligand binding, Adrenergic α2A): 42% | Percentage inhibition of ligand binding, Adrenergic α2A [3, 6]: 75% | inhibition at 0.1 µM [3, 8]: 74%
SMILES: Cc1ccc2c(c1)c1c(n2CC(O)c2ccc(F)cc2)CCN(C)C1 (single isomer, unassigned) [30b]

inhibition at 0.1 µM [1, 9]: 13% | inhibition at 0.03 µM [2, 10]: 68% | inhibition at 0.1 µM [3, 11]: 22%
SMILES: Cc1ccc2c(c1)c1c(n2CC(CCO)c2ccncc2)CCN(C)C1 (centres unmarked) [II-224, 4-(2,8-dimethyl-1,2,3,4-tetrahydro-pyrido[4,3-b]indol-5-yl)-3-pyridin-4-yl-butan-1-ol]

Percentage inhibition of ligand binding, Adrenergic α1B (0.1 μM) [1, 12]: 100% | Percentage inhibition of ligand binding, Adrenergic α2B (0.03 μM) [2, 13]: 98% | Percentage inhibition of ligand binding, Adrenergic α2A (0.1 μM) [3, 14]: 98%
SMILES: Cc1ccc2c(c1)c1c(n2CC(O)c2ccc(F)cc2)CCN2CCCC12 (single isomer, unassigned) [II-120b, 1-(4-fluoro-phenyl)-2-(9-methyl-1,2,3,4,5,10c-hexahydro-3a,6-diaza-cyclopenta[c]fluoren-6-yl)-ethanol]

inhibition at 0.1 µM [1, 9]: 93% | inhibition at 0.03 µM [2, 10]: 98% | Ki [3]: 2.72 nM | Percentage inhibition of ligand binding, Adrenergic α2A (0.1 μM) [3, 14]: 97% | inhibition at 0.03 µM [3, 15]: 84% | inhibition at 0.1 µM [3, 11]: 93%
SMILES: Cc1ccc(C(O)Cn2c3c(c4cc(C)ccc42)CN(C)CC3)cc1 (single isomer, unassigned) [183b, 2-(1,2,3,4-tetrahydro-2,8-dimethylpyrido[4,3-b]indol-5-yl)-1-p-tolylethanol]

Percentage inhibition of ligand binding, Adrenergic α1B ([1]; 0.1 μM compound, 0.1 µM): −1% | Percentage inhibition of ligand binding, Adrenergic α2B ([2]; 0.03 μM compound): 12% | Percentage inhibition of ligand binding, Adrenergic α2A ([3]; 0.1 μM compound): −1%
SMILES: Cc1ccc2c(c1)c1c(n2C(C)C(O)c2ccccc2)CCN(C)C1 (single isomer, unassigned) [II-95b, 2-(2,8-dimethyl-1,2,3,4-tetrahydro-pyrido[4,3-b]indol-5-yl)1-phenyl-propan-1-ol]

Percentage inhibition of ligand binding, Adrenergic α1B [1, 4]: −2% | Percentage inhibition of ligand binding, Adrenergic α2B [2, 5]: 1% | Percentage inhibition of ligand binding, Adrenergic α2A [3, 6]: −3%
SMILES: Cc1ccc2c(c1)c1c(n2CC(O)c2cccnc2)CCN(CCO)C1 (single isomer, unassigned) [21b]

Percentage inhibition of ligand binding, Adrenergic α1B (0.1 μM) [1, 12]: 4% | Percentage inhibition of ligand binding, Adrenergic α2B (0.03 μM) [2, 13]: 4% | Percentage inhibition of ligand binding, Adrenergic α2A (0.1 μM) [3, 14]: 7%
SMILES: CC(O)(Cn1c2c(c3cc(Cl)ccc31)CNCC2)c1cccnc1 (single isomer, unassigned) [175b]

Percentage inhibition of ligand binding, Adrenergic α1B (0.1 μM) [1, 12]: 65% | Percentage inhibition of ligand binding, Adrenergic α2B (0.03 μM) [2, 13]: 41% | Percentage inhibition of ligand binding, Adrenergic α2A (0.1 μM) [3, 14]: 5%
SMILES: Cc1cnc2c(c1)c1c(n2CC(N)c2ccc(C#N)cc2)CCNC1 (single isomer, unassigned) [160b]

Percentage inhibition of ligand binding, Adrenergic α1B ([1]; 0.1 μM compound, 0.1 µM): 7% | Percentage inhibition of ligand binding, Adrenergic α2B ([2]; 0.03 μM compound): 24% | Percentage inhibition of ligand binding, Adrenergic α2A ([3]; 0.1 μM compound): −5%
SMILES: OCCN1CCc2c(c3cc(Cl)ccc3n2CC(O)c2cccnc2)C1 (single isomer, unassigned) [II-94b]

inhibition at 0.1 µM [1, 9]: -2% | inhibition at 0.03 µM [2, 10]: 10% | inhibition at 0.1 µM [3, 11]: 3%
SMILES: Cc1ccc2c(c1)c1c(n2CC(CC(=O)O)c2ccncc2)CCN(C)C1 (centres unmarked) [II-228]

inhibition at 0.1 µM [1, 9]: 11% | Percentage inhibition of ligand binding, Adrenergic α2B (0.03 μM) [2, 13]: 93% | inhibition at 0.1 µM [3, 11]: 15%
SMILES: CNC(Cn1c2c(c3cc(C)ccc31)CN(C)CC2)c1ccncc1 (single isomer, unassigned) [151a, 2-(1,2,3,4-tetrahydro-2,8-dimethylpyrido[4,3-b]indol-5-yl)-N-methyl-1-(pyridin-4-yl)ethanamine]

Percentage inhibition of ligand binding, Adrenergic α1B (0.1 μM) [1, 12]: 37% | inhibition at 0.03 µM ([1]; read-out: Percentage inhibition of ligand binding, Adrenergic α1B (0.03 μM), compound at 0.03 μM, [3H]Prazosin, repeat datapoints each shown): 13% | Percentage inhibition of ligand binding, Adrenergic α2B (0.03 μM) [2, 13]: 63% and 102% | Ki [2]: 1.14 nM | Ki [3]: 90.5 nM | Percentage inhibition of ligand binding, Adrenergic α2A (0.1 μM) [3, 14]: 25% and 36% | inhibition at 0.03 µM [3, 15]: 14%
SMILES: Cc1ccc(C(C)(O)Cn2c3c(c4cc(Cl)ccc42)CN(C)CC3)cn1 (single isomer, unassigned) [93a]

inhibition at 0.1 µM ([1]; 0.1 μM compound, read-out: Percentage inhibition of ligand binding, Adrenergic α1B): 2% | inhibition at 0.03 µM ([2]; 0.03 μM compound, read-out: Percentage inhibition of ligand binding, Adrenergic α2B): 4% | inhibition at 0.1 µM ([3]; 0.1 μM compound, read-out: Percentage inhibition of ligand binding, Adrenergic α2A): 9%
SMILES: Cc1cc2c3c(n(CC(C)(O)c4cccnc4)c2cn1)CCN1CCCC31 (centres unmarked) [II-5]

Percentage inhibition of ligand binding, Adrenergic α1B [1, 4]: 13% | Percentage inhibition of ligand binding, Adrenergic α2B [2, 5]: 32% | Percentage inhibition of ligand binding, Adrenergic α2A [3, 6]: 19%
SMILES: CN1Cc2c(n(CC(O)c3ccncc3)c3ncccc23)C(C)(C)C1 (single isomer, unassigned) [17a, 1-pyridin-4-yl-2-(6,8,8-trimethyl-5,6,7,8-tetrahydro-1,6,9-triaza-fluoren-9-yl)-ethanol]

inhibition at 0.1 µM [1, 9]: 8% | inhibition at 0.03 µM [2, 10]: 43% | inhibition at 0.1 µM [3, 11]: -1%
SMILES: Cc1cnc2c(c1)c1c(n2CC(N)c2ccncc2)CCNC1 (centres unmarked) [compound 158]

Percentage inhibition of ligand binding, Adrenergic α1B ([1]; 0.1 μM compound): 24% | Percentage inhibition of ligand binding, Adrenergic α2B ([2]; 0.03 μM compound): 1% | Percentage inhibition of ligand binding, Adrenergic α2A ([3]; 0.1 μM compound): 4%
SMILES: Cc1cnc2c(c1)c1c(n2CC(O)c2ccc(C)nc2)CCN(C)C1 (single isomer, unassigned) [II-100b]
